Experimental data from the CheMixHub drug solubility set.

Test: xn = mol fraction of the nth substance listed, in the solute-free solvent

CC(=O)Oc1cccc2c1C(=O)c1c(OC(C)=O)cc(C(=O)O)cc1C2=O + CC#N + CCO
solubility (g/100 g solution)
Settings | 273.15 K | 278.15 K | 283.15 K | 288.15 K | 293.15 K | 298.15 K | 303.15 K | 308.15 K | 313.15 K
x2 = 0.1109 | 0.00681 | 0.00922 | 0.0124 | 0.0163 | 0.0211 | 0.0275 | 0.0344 | 0.0422 | 0.0532
x2 = 0.2191 | 0.0086 | 0.0114 | 0.0156 | 0.0201 | 0.0251 | 0.0316 | 0.0396 | 0.0497 | 0.0623
x2 = 0.3248 | 0.0151 | 0.02 | 0.0259 | 0.032 | 0.0393 | 0.0474 | 0.0557 | 0.0657 | 0.0756
x2 = 0.428 | 0.0245 | 0.0312 | 0.039 | 0.0468 | 0.0553 | 0.0655 | 0.0782 | 0.0921 | 0.108
x2 = 0.5288 | 0.0313 | 0.0399 | 0.0509 | 0.0631 | 0.0754 | 0.0896 | 0.105 | 0.121 | 0.139
x2 = 0.6273 | 0.0353 | 0.0455 | 0.0574 | 0.0703 | 0.0834 | 0.0991 | 0.114 | 0.13 | 0.148
x2 = 0.7236 | 0.0286 | 0.0372 | 0.048 | 0.0598 | 0.0714 | 0.0842 | 0.098 | 0.113 | 0.129
x2 = 0.8178 | 0.0226 | 0.029 | 0.0374 | 0.0457 | 0.0538 | 0.0633 | 0.0742 | 0.0857 | 0.101
x2 = 0.9099 | 0.0216 | 0.0259 | 0.0322 | 0.0392 | 0.0467 | 0.0549 | 0.0647 | 0.0747 | 0.0869
